# Target: T1, estrogen receptor alpha (ESR1) in MCF7 breast cancer cells (Homo sapiens, UniProt P03372)
# T1 sequence (P03372 1-595): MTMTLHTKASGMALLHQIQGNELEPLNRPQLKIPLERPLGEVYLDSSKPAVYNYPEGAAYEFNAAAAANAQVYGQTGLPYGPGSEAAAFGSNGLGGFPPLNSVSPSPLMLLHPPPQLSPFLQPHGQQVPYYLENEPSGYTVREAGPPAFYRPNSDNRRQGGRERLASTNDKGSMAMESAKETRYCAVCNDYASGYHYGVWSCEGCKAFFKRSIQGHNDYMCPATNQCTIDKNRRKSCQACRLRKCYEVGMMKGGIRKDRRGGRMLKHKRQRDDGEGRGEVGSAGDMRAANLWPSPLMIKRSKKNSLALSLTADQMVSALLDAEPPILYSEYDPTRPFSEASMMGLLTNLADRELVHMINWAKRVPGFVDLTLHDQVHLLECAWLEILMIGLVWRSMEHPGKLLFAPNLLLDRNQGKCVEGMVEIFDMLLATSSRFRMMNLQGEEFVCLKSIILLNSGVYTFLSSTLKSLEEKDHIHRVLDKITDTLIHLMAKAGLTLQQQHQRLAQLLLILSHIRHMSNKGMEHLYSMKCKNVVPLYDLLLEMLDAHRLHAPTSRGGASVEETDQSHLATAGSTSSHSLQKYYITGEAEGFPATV
# Assay: Breast Cancer Cell ERa High Content Fluorescence Imaging Degradation Assay (ER-alpha MCF7 HCS)
# Assay type: cell-based
# Set-up: endogenous in cells; host or cells: MCF7 breast cancer cells; key to ERalpha (WT) MCF7HCS (Sinf): % change in ERα level; DMSO = 0%, fulvestrant = 100% change
# Details: 4 hours, plateau of the maximal effect, DMSO and fulvestrant define 0% and 100% change in ESR1, Table 1a
# Method in brief: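 MCF7 cells in phenol red-free RPMI with 10% charcoal-stripped FBS were exposed 4 h at 37 °C to 10-point 1.8× dilutions (0.05–835 nM final, 0.84% DMSO); fulvestrant served as control. After fixation, ESR1 was immunostained (F10 mAb, Alexa488) with Hoechst nuclear masking, and nuclear ESR1 fluorescence was quantified by imaging.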
row,ER-alpha MCF7HCS Sinf [%],SMILES
1,−99,"C[C@@H]1Cc2[nH]c3ccccc3c2[C@@H](c2c(F)cc(NC3CN(CCCF)C3)cc2F)N1CC(F)(F)F [Example 152, N-(3,5-difluoro-4-((1S,3R)-3-methyl-2-(2,2,2-trifluoroethyl)-2,3,4,5-tetrahydro-1H-pyrido[4,3-b]indol-1-yl)-phenyl)-1-(3-fluoropropyl) azetidin-3-amine]"
2,−100,"C[C@@H]1Cn2c(cc3ccccc32)[C@@H](c2c(F)cc(OC3CN(CCCF)C3)cc2F)N1CC(C)(C)F [Example 110, (1R,3R)-1-(2,6-Difluoro-4-((1-(3-fluoropropyl)azetidin-3-yl)oxy)phenyl)-2-(2-fluoro-2-methylpropyl)-3-methyl-1,2,3,4-tetrahydropyrazino[1,2-a]indole]"
3,−95,"C[C@@H]1Cc2c([nH]c3ccccc23)[C@@](C)(c2ccc(OCCN3CC(CF)C3)cc2)N1CC(C)(C)F [Example 135, (1R,3R)-2-(2-Fluoro-2-methylpropyl)-1-(4-(2-(3-(fluoromethyl)azetidin-1-yl)ethoxy)phenyl)-1,3-dimethyl-2,3,4,9-tetrahydro-1H-pyrido[3,4-b]indole]"
4,−88.6,"CC1Cc2c(c3ccccc3n2C)C(c2c(F)cc(OCCN3CC(CF)C3)cc2F)N1CC(C)(C)F (racemic) [Example 139, (±)-1-(2-6-difluoro-4-(2-(3-(fluoromethyl)azetidin-1-yl)ethoxy)phenyl)-2-(2-fluoro-2-methylpropyl)-3,5-dimethyl-2,3,4,5-tetrahydro-1H-pyrido[4,3-b] indole]"
5,−87,"C[C@@H]1Cn2c(cc3ccccc32)[C@H](c2c(F)cc(NC3CN(CCCF)C3)cc2F)N1CC(F)(F)F [Example 145, N-(3,5-Difluoro-4-((1S,3R)-3-methyl-2-(2,2,2-trifluoroethyl)-1,2,3,4-tetrahydropyrazino[1,2-a]indol-1-yl)phenyl)-1-(3-fluoropropyl)azetidin-3-amine]"
6,−97,"C[C@@H]1Cn2c(cc3ccccc32)[C@@H](c2c(F)cc(OC3CN(CCCF)C3)cc2F)N1CC(C)(F)CO (stereo partly drawn) [Example 122, 3-((1R,3R)-1-(2,6-Difluoro-4-((1-(3-fluoropropyl)azetidin-3-yl)oxy)phenyl)-3-methyl-3,4-dihydropyrazino[1,2-a]indol-2(1H)-yl)-2-fluoro-2-methylpropan-1-ol]"
7,−94.7,"C[C@@H]1Cc2c([nH]c3ccccc23)[C@]2(CCc3cc(OCCN4CC(CF)C4)ccc32)N1CC(C)(C)F [Example 113, (1R,3′R)-2′-(2-fluoro-2-methylpropyl)-5-(2-(3-(fluoromethyl)azetidin-1-yl)ethoxy)-3′-methyl-2,2′,3,3′,4′,9′-hexahydrospiro[indene-1,1′-pyrido[3,4-b]indole]]"
8,−74.6,"C[C@@H]1CN(CC(C)(C)F)[C@@H](c2c(F)cc(OCCN3CC(CF)C3)cc2F)c2[nH]c3ccccc3c21 (single isomer, unassigned) [Example 109]"
9,−101,"C[C@H]1CCN(CC(C)(C)F)[C@H](c2c(F)cc(OCCN3CC(CF)C3)cc2F)c2[nH]c3ccccc3c21 [Example 125, (1R,5S)-1-(2,6-difluoro-4-(2-(3-(fluoromethyl)azetidin-1-yl)ethoxy)phenyl)-2-(2-fluoro-2-methylpropyl)-5-methyl-1,2,3,4,5,10-hexahydroazepino[3,4-b]indole]"
10,−76.8,"C[C@@H]1Cc2sc3ccccc3c2[C@H](c2ccc(OCCN3CC(CF)C3)cc2)N1CC(C)(C)F (single isomer, unassigned) [Example 130]"
11,−96.5,"C[C@@H]1Cc2c([nH]c3ccccc23)[C@]2(CCc3nc(OCCN4CC(CF)C4)ccc32)N1CC(F)(F)F [Example 134, (3′R,5R)-2-(2-(3-(fluoromethyl)azetidin-1-yl)ethoxy)-3′-methyl-2′-(2,2,2-trifluoroethyl)-2′,3′,4′,6,7,9′-hexahydrospiro [cyclopenta[b]pyridine-5,1′-pyrido [3,4-b]indole]]"
12,−93.8,"C[C@@](F)(CO)CN1CCCc2c([nH]c3ccccc23)[C@H]1c1c(F)cc(OCCN2CC(CF)C2)cc1F [Example 117, (S)-3-((R)-1-(2,6-difluoro-4-(2-(3-(fluoromethyl)azetidin-1-yl)ethoxy)phenyl)-3,4,5,10-tetrahydroazepino[3,4-b]indol-2(1H)-yl)-2-fluoro-2-methylpropan-1-ol]"
13,−88.8,"C[C@H]1Cc2c(oc3ccccc23)[C@H](c2c(F)cc(NC3CN(CCCF)C3)cc2F)N1CC(F)(F)CO (single isomer, unassigned) [Example 158]"
14,−96.9,"C[C@@H]1CCN(CC(C)(C)F)[C@H](c2c(F)cc(OCCN3CC(CF)C3)cc2F)c2[nH]c3ccccc3c21 [Example 123, (1R,5R)-1-(2,6-difluoro-4-(2-(3-(fluoromethyl)azetidin-1-yl)ethoxy)phenyl)-2-(2-fluoro-2-methylpropyl)-5-methyl-1,2,3,4,5,10-hexahydroazepino[3,4-b]indole]"
15,−96,"CC1(C)CN(CC(F)(F)CO)[C@H](c2c(F)cc(NC3CN(CCCF)C3)cc2F)c2[nH]c3ccccc3c21 [Example 142, (R)-3-(1-(2,6-difluoro-4-(1-(3-fluoropropyl)azetidin-3-ylamino)phenyl)-4,4-dimethyl-3,4-dihydro-1H-pyrido[3,4-b]indol-2(9H)-yl)-2,2-difluoropropan-1-ol]"

# Same assay, conditions: 4 hours, plateau of the maximal effect, DMSO and fulvestrant define 0% and 100% change in ESR1, Table 1b
row,ERalpha (WT) MCF7HCS (Sinf),SMILES
1,−101,"C[C@@H]1Cc2sc3ccccc3c2[C@@H](c2c(F)cc(NC3CN(CCCF)C3)cc2F)N1CC(F)(F)CO [Example 166, 3-((1R,3R)-1-(2,6-difluoro-4-((1-(3-fluoropropyl)azetidin-3-yl)amino)phenyl)-3-methyl-3,4-dihydrobenzo[4,5]thieno[3,2-c]pyridin-2(1H)-yl)-2,2-difluoropropan-1-ol]"
